Assay results as given in patent US20260137819A1 (Radionetics Oncology, Inc., priority 2022, published 2026).
Starred links: 1 amine or outer side, 2 acyl side, 3 side chain; linkers in the order of their positions; H or OH if unused. Non-standard residues stand in square brackets, D forms with d. Residues, ends and D or L forms follow the SMILES beside them. Groups on a side chain read outwards from the residue. *: point of attachment. X1 = COc1cc2c(cc1-c1cccc(N*)c1)-c1c(c(C(=O)N3CCOCC3(C)C)nn1-c1cc(Cl)cc(Cl)c1)CO2; DOTA = O=C(O)CN1CCN(CC(=O)O)CCN(CC(=O)*)CCN(CC(=O)O)CC1; Suc = O=C(CCC(=O)[*:2])[*:1]

The compounds below were run against T1, human follicle-stimulating hormone receptor (FSHR) (Homo sapiens, UniProt P23945) (assay: Measurement of agonist cAMP production by activation of human FSHR). Details: CHO-K1 human FSHR cells, 30 minutes at 37° C., HTRF cAMP kit; read-out: hFSHR Agonist cAMP EC50.
T1 construct: host or cells: CHO-K1
T1 sequence (P23945 18-695): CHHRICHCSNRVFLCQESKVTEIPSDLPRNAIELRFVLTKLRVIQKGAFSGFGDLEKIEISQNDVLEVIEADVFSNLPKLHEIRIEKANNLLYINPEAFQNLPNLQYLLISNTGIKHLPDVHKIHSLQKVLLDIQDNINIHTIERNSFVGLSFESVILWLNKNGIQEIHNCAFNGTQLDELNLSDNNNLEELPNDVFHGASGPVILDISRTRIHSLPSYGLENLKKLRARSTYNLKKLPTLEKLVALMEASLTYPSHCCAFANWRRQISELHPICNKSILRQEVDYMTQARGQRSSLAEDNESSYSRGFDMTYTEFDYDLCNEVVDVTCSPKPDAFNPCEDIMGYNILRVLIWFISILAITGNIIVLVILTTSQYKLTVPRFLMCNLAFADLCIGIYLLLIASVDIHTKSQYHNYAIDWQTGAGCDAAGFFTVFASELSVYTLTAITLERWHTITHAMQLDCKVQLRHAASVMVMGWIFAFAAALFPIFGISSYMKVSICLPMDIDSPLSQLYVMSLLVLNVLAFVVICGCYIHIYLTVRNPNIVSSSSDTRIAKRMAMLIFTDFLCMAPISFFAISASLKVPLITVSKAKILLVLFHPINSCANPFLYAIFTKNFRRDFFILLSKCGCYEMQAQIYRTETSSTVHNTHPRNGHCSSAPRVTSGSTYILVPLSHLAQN
Assay type: cell-based
In short: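 cAMP output was measured by HTRF after 30 min at 37 °C agonist exposure (0–10,000 nM final) in stably FSHR-transfected CHO-K1 cells. Lysate cAMP was read off a standard curve and fitted to obtain half-maximal EC50.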

Structure (SMILES)	EC50 [nM]
COc1cc2c(cc1-c1cccc(NC(=O)CCOCCOCCOCCNC(=O)CN3CCN(CC(=O)O)CCN(CC(=O)O)CCN(CC(=O)O)CC3)c1)-c1c(c(C(=O)N3CCOCC3(C)C)nn1-c1cc(Cl)cc(Cl)c1)CO2 [Compound 18A]	< 10
COc1cc2c(cc1-c1cccc(NC(=O)CCC(=O)NCCCC[C@@H](NC(=O)[C@@H](CCC(=O)O)NC(=O)[C@@H](CCC(=O)O)NC(=O)[C@@H](C)NC(=O)CN3CCN(CC(=O)O)CCN(CC(=O)O)CCN(CC(=O)O)CC3)C(=O)N[C@H](CCC(=O)O)C(=O)N[C@H](CCC(=O)O)C(=O)N[C@H](C)C(N)=O)c1)-c1c(c(C(=O)N3CCOCC3(C)C)nn1-c1cc(Cl)cc(Cl)c1)CO2 [Compound 88] ({DOTA}-[dA][dE][dE][dK]([Suc-X1])[dE][dE][dA]-NH2)	10 to 100
COc1cc2c(cc1-c1cccc(NC(=O)CCOCC(COCCC(=O)O)(COCCC(=O)O)NC(=O)CN3CCN(CC(=O)O)CCN(CC(=O)O)CCN(CC(=O)O)CC3)c1)-c1c(c(C(=O)N3CCOCC3(C)C)nn1-c1cc(Cl)cc(Cl)c1)CO2 [Compound 47, 2,2′,2″-(10-(2-((1,3-bis(2-carboxyethoxy)-2-((3-((3-(1-(3,5-dichlorophenyl)-3(3,3-dimethylmorpholine-4-carbonyl)-7-methoxy-1,4-dihydrochromeno|4,3-clpyrazol-8-yl)phenyl)amino)-3-oxopropoxy)methyl)propan-2-yl)amino)-2-oxoethyl)-1,4,7,10-tetraazacyclododecane-1,4,7-triyl)triacetic acid]	10 to 100
COc1cc2c(cc1-c1cncc(NC(=O)CCCNC(=O)CCOCCNC(=O)CN3CCN(CC(=O)O)CCN(CC(=O)O)CCN(CC(=O)O)CC3)c1)-c1c(c(C(=O)N3CCOCC3(C)C)nn1-c1cc(F)cc(F)c1)CO2 [Compound 57, 2,2′,2″-(10-(2-((2-(3-((4-((5-(1-(3,5-difluorophenyl)-3-(3,3-dimethylmorpholine-4-carbonyl)-7-methoxy-1,4-dihydrochromeno[4,3-c]pyrazol-8-yl)pyridin-3-yl)amino)-4-oxobutyl)amino)-3-oxopropoxy)ethyl)amino)-2-oxoethyl)-1,4,7,10-tetraazacyclododecane-1,4,7-triyl)triacetic acid--2,2,2-trifluoroacetic acid (1/1)]	10 to 100
COc1cc2c(cc1-c1cncc(OCCOCCOCCOCCOCCNC(=O)[C@H](CS(=O)(=O)O)NC(=O)CN3CCN(CC(=O)O)CCN(CC(=O)O)CCN(CC(=O)O)CC3)c1)-c1c(c(C(=O)N3CCCN(C(=O)C4CCC4)CC3)nn1-c1cccs1)CO2 [Compound 76, (R)-2,2′,2″-(10-(20-((5-(3-(4-(cyclobutanecarbonyl)-1,4-diazepane-1carbonyl)-7-methoxy-1-(thiophen-2-yl)-1,4-dihydrochromeno[4,3-c]pyrazol-8-yl)pyridin-3-yl)oxy)-2,5-dioxo-4-(sulfomethyl)-9,12,15,18-tetraoxa-3,6-diazaicosyl)-1,4,7,10-tetraazacyclododecane-1,4,7-triyl)triacetic acid]	10 to 100
COc1cc2c(cc1-c1ccc(NC(=O)NCCOCCOCCOCCOCCOCCOCCNC(=O)CN3CCN(CC(=O)O)CCN(CC(=O)O)CCN(CC(=O)O)CC3)cc1)-c1c(c(C(=O)N(C)C(C)(C)C)nn1-c1cc(Cl)cc(Cl)c1)CO2 [Compound 5A, indium (III) 2,2′,2″-(10-(1-((4-(3-(tert-butyl(methyl)carbamoyl)-1-(3,5-dichlorophenyl)-7-methoxy-1,4-dihydrochromeno[4,3-c]pyrazol-8-yl)phenyl)amino)-1,24-dioxo-5,8,11,14,17,20-hexaoxa-2,23-diazapentacosan-25-yl)-1,4,7,10-tetraazacyclododecane-1,4,7-triyl)triacetate]	< 10
COc1cc2c(cc1-c1cncc(COCCOCCOCCOCCNC(=O)[C@H](CS(=O)(=O)O)NC(=O)CN3CCN(CC(=O)O)CCN(CC(=O)O)CCN(CC(=O)O)CC3)c1)-c1c(c(C(=O)N3CCOCC3(C)C)nn1-c1cc(Cl)cc(Cl)c1)CO2 [Compound 72, (R)-2,2′,2″-(10-(1-(5-(1-(3,5-dichlorophenyl)-3-(3,3-dimethylmorpholine-4carbonyl)-7-methoxy-1,4-dihydrochromeno|4,3-c|pyrazol-8-yl)pyridin-3-yl)-15,18-dioxo-16-(sulfomethyl)-2,5,8,11-tetraoxa-14,17-diazanonadecan-19-yl)-1,4,7,10-tetraazacyclododecane-1,4,7-triyl)triacetic acid]	10 to 100
COc1cc2c(cc1-c1cncc(OCCOCCOCCOCCOCCNC(=O)[C@H](CS(=O)(=O)O)NC(=O)CN3CCN(CC(=O)O)CCN(CC(=O)O)CCN(CC(=O)O)CC3)c1)-c1c(c(C(=O)N3CCOCC3(C)C)nn1-c1cc(Cl)cc(Cl)c1)CO2 [Compound 68, (R)-2,2′,2″-(10-(20-((5-(1-(3,5-dichlorophenyl)-3-(3,3-dimethylmorpholine-4carbonyl)-7-methoxy-1,4-dihydrochromeno|4,3-c|pyrazol-8-yl)pyridin-3-yl)oxy)-2,5-dioxo-4-(sulfomethyl)-9,12,15,18-tetraoxa-3,6-diazaicosyl)-1,4,7,10-tetraazacyclododecane-1,4,7-triyl)triacetic acid]	< 10
COc1cc2c(cc1-c1cccc(NC(=O)CCC(=O)N(CCOCCOCCOCCOCCOCCC(=O)O)C3CCN(C(=O)CN4CCN(CC(=O)O)CCN(CC(=O)O)CCN(CC(=O)O)CC4)CC3)c1)-c1c(c(C(=O)N3CCOCC3(C)C)nn1-c1cc(Cl)cc(Cl)c1)CO2 [Compound 45, 2,2′,2″-(10-(2-(4-(N-(17-carboxy-3,6,9,12,15-pentaoxaheptadecyl)-4-((3-(1-(3,5dichlorophenyl)-3-(3,3-dimethylmorpholine-4-carbonyl)-7-methoxy-1,4-dihydrochromeno|4,3-clpyrazol-8-yl)phenyl)amino)-4-oxobutanamido)piperidin-1-yl)-2-oxoethyl)-1,4,7,10-tetraazacyclododecane-1,4,7-triyl)triacetic acid]	< 10
COc1cc2c(cc1-c1cccc(NC(=O)CCC(=O)NCCCC[C@@H](NC(=O)[C@@H](CO)NC(=O)[C@@H](CC(N)=O)NC(=O)[C@@H](C)NC(=O)CN3CCN(CC(=O)O)CCN(CC(=O)O)CCN(CC(=O)O)CC3)C(=O)N[C@H](CC(N)=O)C(=O)N[C@H](CO)C(=O)N[C@H](C)C(N)=O)c1)-c1c(c(C(=O)N3CCOCC3(C)C)nn1-c1cc(Cl)cc(Cl)c1)CO2 [Compound 97] ({DOTA}-[dA][dN][dS][dK]([Suc-X1])[dN][dS][dA]-NH2)	10 to 100
COc1cc2c(cc1-c1cncc(NC(=O)CCCNC(=O)[C@@H](CCCNC(=N)N)NC(=O)CCNC(=O)CN3CCN(CC(=O)O)CCN(CC(=O)O)CCN(CC(=O)O)CC3)c1)-c1c(c(C(=O)N3CCOCC3(C)C)nn1-c1cc(Cl)cc(Cl)c1)CO2 [Compound 81, (R)-2,2′,2″-(10-(2-((3-((1-((4-((5-(1-(3,5-dichlorophenyl)-3-(3,3dimethylmorpholine-4-carbonyl)-7-methoxy-1,4-dihydrochromeno|4,3-clpyrazol-8-yl)pyridin-3-yl)amino)-4-oxobutyl)amino)-5-guanidino-1-oxopentan-2-yl)amino)-3-oxopropyl)amino)-2-oxoethyl)-1,4,7,10-tetraazacyclododecane-1,4,7-triyl)triacetic acid--2,2,2-trifluoroacetic acid (1/1)]	< 10
COc1cc2c(cc1-c1cccc(NC(=O)CCOCCOCCOCCOCCNC(=O)[C@@H](CS(=O)(=O)O)NC(=O)CN3CCN(CC(=O)O)CCN(CC(=O)O)CCN(CC(=O)O)CC3)c1)-c1c(c(C(=O)N3CCOCC3(C)C)nn1-c1cc(Cl)cc(Cl)c1)CO2 [Compound 26, (S)-2,2′,2″-(10-(21-((3-(1-(3,5-dichlorophenyl)-3-(3,3-dimethylmorpholine-4-carbonyl)-7-methoxy-1,4-dihydrochromeno[4,3-c]pyrazol-8-yl)phenyl)amino)-2,5,21-trioxo-4-(sulfomethyl)-9,12,15,18-tetraoxa-3,6-diazahenicosyl)-1,4,7,10-tetraazacyclododecane-1,4,7-triyl)triacetic acid]	< 10
COc1cc2c(cc1-c1cccc(NC(=O)CON=C3CN(C(=O)CN4CCN(CC(=O)O)CCN(CC(=O)O)CCN(CC(=O)O)CC4)C3)c1)-c1c(c(C(=O)N3CCOCC3(C)C)nn1-c1cc(Cl)cc(Cl)c1)CO2 [Compound 44, 2,2′,2″-(10-(2-(3-((2-((3-(1-(3,5-dichlorophenyl)-3-(3,3-dimethylmorpholine-4carbonyl)-7-methoxy-1,4-dihydrochromeno|4,3-c|pyrazol-8-yl)phenyl)amino)-2-oxoethoxy)imino)azetidin-1-yl)-2-oxoethyl)-1,4,7,10-tetraazacyclododecane-1,4,7-triyl)triacetic acid]	< 10
